In patent publication US9139557B2, “Carboxamide compounds and their use as calpain inhibitors” (Abbott GmbH & Co. KG, priority 2006, dated 2015):

Columns and labels:
Assay type in all cases: biochemical
cathepsin K = target: T1, cathepsin K (Homo sapiens, UniProt P43235); experiment: Cathepsin K enzyme inhibition in vitro (kinetic fluorescence assay); conditions: Ki(cathepsin K)/Ki(calpain) ratio
T1 construct: purchased Calbiochem 342001; host or cells: E. coli
T1 sequence (P43235 115-329): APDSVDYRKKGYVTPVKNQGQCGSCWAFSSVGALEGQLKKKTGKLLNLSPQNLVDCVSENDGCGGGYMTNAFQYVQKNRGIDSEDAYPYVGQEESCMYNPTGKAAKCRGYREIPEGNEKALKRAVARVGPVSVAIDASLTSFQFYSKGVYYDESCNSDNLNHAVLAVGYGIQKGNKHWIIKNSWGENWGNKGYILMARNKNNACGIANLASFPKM
Experimental: Testing for blockade of the corresponding enzymic activities was carried out by means of kinetic fluorescence assays (excitation 390 nm, emission 460 nm).
Apparent Ki values were calculated from the experimentally determined IC50 values by the Cheng-Prussoff relation assuming a reversible competitive enzyme inhibition. The Km values of the substrates used under the assay conditions indicated above were: 90 μM (Z-Phe-Arg-AMC, cathepsin B), 10 μM (Z-Gly-Pro-Arg-AMC, cathepsin K), 2 μM (Z-Phe-Arg-AMC, cathepsin L), and 30 μM (Z-Val-Val-Arg-AMC, cathepsin S).
The indicated Ki values are averages of the inhibition constants calculated on the basis of 2 to 4 independent dose-effect plots.
• 1. Calpain I: • 20 nM calpain-I—isolated from human erythrocytes (Calbiochem #208713), 100 μM Suc-Leu-Tyr-AMC (Bachem #1-1355) as substrate in buffer with 62 mM imidazole, 0.3 mM CaCl2, 0.10% CHAPS, 0.05% BSA, 1 mM DTT at pH 7.3 and room temperature. • 2. Cathepsin B: • 0.25 nM cathepsin B—isolated from human liver (Calbiochem #219362), 100 μM Z-Phe-Arg-AMC (Bachem #1-1160) as substrate 50 mM MES, 2 mM EDTA, 0.05% Brij 35, 2.5 mM L-cysteine, pH 6.0, room temperature. • 3. Cathepsin K: • 3 nM cathepsin K—activated from recombinant human procathepsin K from E. coli (Calbiochem #342001), 10 μM Z-Gly-Pro-Arg-AMC (Biomol #P-142) as substrate in 50 mM MES, 2 mM EDTA, 0.05% Brij 35, 2.5 mM L-cysteine, pH 6.0, room temperature. • 4. Cathepsin L: • 1 nM cathepsin L—isolated from human liver (Calbiochem #219402), 2 μM Z-Phe-Arg-AMC (Bachem #1-1160) as substrate in 50 mM MES, 2 mM EDTA, 0.05% Brij 35, 2.5 mM L-cysteine, pH 6.0, room temperature. • 5. Cathepsin S: • 0.5 nM recombinant human cathepsin S from E. coli (Calbiochem #219343), 20 μM Z-Val-Val-Arg-AMC (Bachem #1-1540) as substrate in 50 mM MES, 2 mM EDTA, 0.05% Brij 35, 2.5 mM L-cysteine, pH 6.0, room temperature.

cathepsin B = target: T2, cathepsin B (Homo sapiens, UniProt P07858); experiment: Cathepsin B enzyme inhibition in vitro (kinetic fluorescence assay); conditions: Ki(cathepsin B)/Ki(calpain) ratio
T2 construct: cathepsin B—isolated from human liver; purchased Calbiochem 219362; host or cells: human liver (tissue isolate)
In short: (§1)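 Kinetic fluorescence (ex 390/em 460 nm), RT. Calpain-I: 20 nM erythrocyte-derived, 100 μM Suc-Leu-Tyr-AMC, imidazole/CaCl2, pH 7.3. Cathepsins, pH 6.0 MES/EDTA/cysteine: B 0.25 nM liver, 100 μM Z-Phe-Arg-AMC; L 1 nM liver, 2 μM Z-Phe-Arg-AMC; S 0.5 nM recombinant, 20 μM Z-Val-Val-Arg-AMC. Cheng-Prusoff Ki, mean of 2–4 curves.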

cathepsin S = target: T3, cathepsin S (Homo sapiens, UniProt P25774); experiment: Cathepsin S enzyme inhibition in vitro (kinetic fluorescence assay); conditions: Ki(cathepsin S)/Ki(calpain) ratio
T3 construct: purchased Calbiochem 219343; host or cells: E. coli
In short: as §1

cathepsin L = target: T4, cathepsin L (Homo sapiens, UniProt P07711); experiment: Cathepsin L enzyme inhibition in vitro (kinetic fluorescence assay); conditions: Ki(cathepsin L)/Ki(calpain) ratio
T4 construct: cathepsin L—isolated from human liver; purchased Calbiochem 219402; host or cells: human liver (tissue isolate)
In short: as §1

T4 sequence (P07711 114-333): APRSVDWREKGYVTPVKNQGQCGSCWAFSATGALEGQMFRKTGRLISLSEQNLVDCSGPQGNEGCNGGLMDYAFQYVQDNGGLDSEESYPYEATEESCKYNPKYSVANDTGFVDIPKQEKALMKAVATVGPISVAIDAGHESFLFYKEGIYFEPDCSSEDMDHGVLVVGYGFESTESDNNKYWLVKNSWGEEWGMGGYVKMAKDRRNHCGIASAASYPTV
T3 sequence (P25774 115-331): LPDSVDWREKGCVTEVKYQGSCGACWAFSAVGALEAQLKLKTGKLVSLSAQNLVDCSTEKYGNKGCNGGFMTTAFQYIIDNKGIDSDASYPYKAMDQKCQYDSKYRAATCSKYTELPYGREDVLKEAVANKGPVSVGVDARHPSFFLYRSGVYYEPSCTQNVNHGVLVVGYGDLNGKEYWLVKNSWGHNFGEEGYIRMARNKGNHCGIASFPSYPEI

Compound | Sel cat. K (cathepsin K) | Sel cat. B (cathepsin B) | Sel cat. S (cathepsin S) | Sel cat. L (cathepsin L)
Cc1ccccc1-c1ccn(-c2ncccc2C(=O)NC(Cc2ccccc2)C(=O)C(N)=O)n1 (stereo not shown) [Example 93, N-[3-Amino-2,3-dioxo-1-(phenylmethyl)propyl]-2-[3-(2-methylphenyl)-1H-pyrazol-1-yl]pyridine-3-carboxamide] | + (+ means 10≦Ki(cathepsin K)/Ki(calpain)<30) | ++ (++ means a Ki(cathepsin B)/Ki(calpain) ratio of ≧30) | ++ (++ means a Ki(cathepsin S)/Ki(calpain) ratio of ≧100) | ++ (++ means a Ki(cathepsin L)/Ki(calpain) ratio of ≧50)
NC(=O)C(=O)C(Cc1ccccc1)NC(=O)c1cccnc1-n1ccc(-c2ccccc2)n1 (stereo not shown) [Example 5, N-(3-Amino-1-benzyl-2,3-dioxopropyl)-2-(3-phenyl-1H-pyrazol-1-yl)nicotinamide] | + (+ means 10≦Ki(cathepsin K)/Ki(calpain)<30) | + (+ means 10≦Ki(cathepsin B)/Ki(calpain)<30) | ++ (++ means a Ki(cathepsin S)/Ki(calpain) ratio of ≧100) | ++ (++ means a Ki(cathepsin L)/Ki(calpain) ratio of ≧50)
COc1cc(F)ccc1-c1ccn(-c2ncccc2C(=O)NC(Cc2ccccc2)C(=O)C(N)=O)n1 (stereo not shown) [Example 125, N-[3-Amino-2,3-dioxo-1-(phenylmethyl)propyl]-2-{3-[4-fluoro-2-(methyloxy)phenyl]-1H-pyrazol-1-yl}pyridine-3-carboxamide] | ++ (++ means a Ki(cathepsin K)/Ki(calpain) ratio of ≧30) | ++ (++ means a Ki(cathepsin B)/Ki(calpain) ratio of ≧30) | ++ (++ means a Ki(cathepsin S)/Ki(calpain) ratio of ≧100) | ++ (++ means a Ki(cathepsin L)/Ki(calpain) ratio of ≧50)
NC(=O)C(=O)C(Cc1ccc(F)cc1)NC(=O)c1cccnc1-n1ccc(-c2ccc(Cl)cc2Cl)n1 (stereo not shown) [Example 114, N-{-3-Amino-1-[(4-fluorophenyl)methyl]-2,3-dioxopropyl}-2-[3-(2,4-dichlorophenyl)-1H-pyrazol-1-yl]pyridine-3-carboxamide] | ++ (++ means a Ki(cathepsin K)/Ki(calpain) ratio of ≧30) | ++ (++ means a Ki(cathepsin B)/Ki(calpain) ratio of ≧30) | ++ (++ means a Ki(cathepsin S)/Ki(calpain) ratio of ≧100) | ++ (++ means a Ki(cathepsin L)/Ki(calpain) ratio of ≧50)
COc1ccc(CC(NC(=O)c2cccnc2-n2ccc(-c3ccc(F)cc3F)n2)C(=O)C(N)=O)cc1 (stereo not shown) [Example 97, N-(3-Amino-1-{[4-(methyloxy)phenyl]methyl}-2,3-dioxopropyl)-2-[3-(2,4-difluorophenyl)-1H-pyrazol-1-yl]pyridine-3-carboxamide] | + (+ means 10≦Ki(cathepsin K)/Ki(calpain)<30) | ++ (++ means a Ki(cathepsin B)/Ki(calpain) ratio of ≧30) | ++ (++ means a Ki(cathepsin S)/Ki(calpain) ratio of ≧100) | ++ (++ means a Ki(cathepsin L)/Ki(calpain) ratio of ≧50)
COc1ccc(CC(NC(=O)c2cccnc2-n2ccc(-c3cccc(F)c3Cl)n2)C(=O)C(N)=O)cc1 (stereo not shown) [Example 157, N-(3-Amino-1-{[4-(methyloxy)phenyl]methyl}-2,3-dioxopropyl)-2-[3-(2-chloro-3-fluorophenyl)-1H-pyrazol-1-yl]pyridine-3-carboxamide] | ++ (++ means a Ki(cathepsin K)/Ki(calpain) ratio of ≧30) | ++ (++ means a Ki(cathepsin B)/Ki(calpain) ratio of ≧30) | ++ (++ means a Ki(cathepsin S)/Ki(calpain) ratio of ≧100) | ++ (++ means a Ki(cathepsin L)/Ki(calpain) ratio of ≧50)
NC(=O)C(=O)C(Cc1ccccc1)NC(=O)c1cccnc1-n1ccc(-c2cccc(Cl)c2)n1 (stereo not shown) [Example 70, N-(3-Amino-1-benzyl-2,3-dioxopropyl)-2-[3-(3-chlorophenyl)-1H-pyrazol-1-yl]nicotinamide] | + (+ means 10≦Ki(cathepsin K)/Ki(calpain)<30) | + (+ means 10≦Ki(cathepsin B)/Ki(calpain)<30) | ++ (++ means a Ki(cathepsin S)/Ki(calpain) ratio of ≧100) | ++ (++ means a Ki(cathepsin L)/Ki(calpain) ratio of ≧50)
NC(=O)C(=O)C(Cc1ccccc1)NC(=O)c1cccnc1-n1ccc(-c2cccc(Cl)c2Cl)n1 (stereo not shown) [Example 115, N-[3-Amino-2,3-dioxo-1-(phenylmethyl)propyl]-2-[3-(2,3-dichlorophenyl)-1H-pyrazol-1-yl]pyridine-3-carboxamide] | ++ (++ means a Ki(cathepsin K)/Ki(calpain) ratio of ≧30) | ++ (++ means a Ki(cathepsin B)/Ki(calpain) ratio of ≧30) | ++ (++ means a Ki(cathepsin S)/Ki(calpain) ratio of ≧100) | ++ (++ means a Ki(cathepsin L)/Ki(calpain) ratio of ≧50)
COc1ccc(CC(NC(=O)c2cccnc2-n2ccc(-c3cccc(Cl)c3Cl)n2)C(=O)C(N)=O)cc1 (stereo not shown) [Example 153, N-(3-Amino-1-{[4-(methyloxy)phenyl]methyl}-2,3-dioxopropyl)-2-[3-(2,3-dichlorophenyl)-1H-pyrazol-1-yl]pyridine-3-carboxamide] | ++ (++ means a Ki(cathepsin K)/Ki(calpain) ratio of ≧30) | ++ (++ means a Ki(cathepsin B)/Ki(calpain) ratio of ≧30) | ++ (++ means a Ki(cathepsin S)/Ki(calpain) ratio of ≧100) | ++ (++ means a Ki(cathepsin L)/Ki(calpain) ratio of ≧50)
NC(=O)C(=O)C(Cc1ccccc1)NC(=O)c1cccnc1-n1ccc(-c2ccc(Cl)cc2Cl)n1 (stereo not shown) [Example 79, N-(3-Amino-1-benzyl-2,3-dioxopropyl)-2-[3-(2,4-dichlorophenyl)-1H-pyrazol-1-yl]nicotinamide] | ++ (++ means a Ki(cathepsin K)/Ki(calpain) ratio of ≧30) | ++ (++ means a Ki(cathepsin B)/Ki(calpain) ratio of ≧30) | ++ (++ means a Ki(cathepsin S)/Ki(calpain) ratio of ≧100) | ++ (++ means a Ki(cathepsin L)/Ki(calpain) ratio of ≧50)
COc1ccc(Cl)cc1-c1ccn(-c2ncccc2C(=O)NC(Cc2ccccc2)C(=O)C(N)=O)n1 (stereo not shown) [Example 131, N-[3-Amino-2,3-dioxo-1-(phenylmethyl)propyl]-2-{3-[5-chloro-2-(methyloxy)phenyl]-1H-pyrazol-1-yl}pyridine-3-carboxamide] | ++ (++ means a Ki(cathepsin K)/Ki(calpain) ratio of ≧30) | ++ (++ means a Ki(cathepsin B)/Ki(calpain) ratio of ≧30) | ++ (++ means a Ki(cathepsin S)/Ki(calpain) ratio of ≧100) | ++ (++ means a Ki(cathepsin L)/Ki(calpain) ratio of ≧50)
NC(=O)C(=O)[C@H](Cc1ccccc1)NC(=O)c1cccnc1-n1ccc(-c2ccccc2)n1 [Example 107, N-[(1S)-3-Amino-2,3-dioxo-1-(phenylmethyl)propyl]-2-(3-phenyl-1H-pyrazol-1-yl)pyridine-3-carboxamide] | + (+ means 10≦Ki(cathepsin K)/Ki(calpain)<30) | + (+ means 10≦Ki(cathepsin B)/Ki(calpain)<30) | ++ (++ means a Ki(cathepsin S)/Ki(calpain) ratio of ≧100) | ++ (++ means a Ki(cathepsin L)/Ki(calpain) ratio of ≧50)
COc1ccc(-c2ccn(-c3ncccc3C(=O)NC(Cc3ccccc3)C(=O)C(N)=O)n2)c(OC)c1 (stereo not shown) [Example 117, N-[3-Amino-2,3-dioxo-1-(phenylmethyl)propyl]-2-{3-[2,4-bis(methyloxy)phenyl]-1H-pyrazol-1-yl}pyridine-3-carboxamide] | ++ (++ means a Ki(cathepsin K)/Ki(calpain) ratio of ≧30) | ++ (++ means a Ki(cathepsin B)/Ki(calpain) ratio of ≧30) | ++ (++ means a Ki(cathepsin S)/Ki(calpain) ratio of ≧100) | ++ (++ means a Ki(cathepsin L)/Ki(calpain) ratio of ≧50)
